Test results from US11807628B2, “Benzodiazepine derivatives and uses thereof” (priority 2018, dated 2023).
Non-standard residues stand in square brackets, D forms with d. Residues, ends and D or L forms follow the SMILES beside them. Dolaproine = CO[C@@H]([C@@H]1CCCN1)[C@@H](C)C(=O)O; Dil = CC[C@H](C)[C@H](NC)[C@@H](CC(=O)O)OC; NMeV = CN[C@H](C(=O)O)C(C)C

Tests used:
JIMT-1 [1] = test: In vitro analysis of benzodiazepine dimer derivatives, MTT cell viability; type: cell-based; conditions: MTT assay, 6 days incubation
Protocol: (§1) Example 85: In Vitro Analysis of Benzodiazepine Dimer Derivatives A-498, HCT-116, JIMT-1, MIA-PaCa-2 and HEK-293E were seeded into 24-well plates at 10×10^3 cells/1 mL medium/well. Calu-6, PC-3 and SK-OV-3 were seeded into 24-well plates at 15×10^3 cells/1 mL medium/well. NCI-N87 was seeded into 24-well plates at 25×10^3 cells/1 mL medium/well. The plates were incubated for 24 hours at 37° C. in a humidified 5% CO2-in-air atmosphere. Benzodiazepine dimer derivatives were dissolved initially in DMSO at a concentration of 10 mM. Serial dilutions were made in DMSO. The series of compound dilutions in DMSO were added to triplicate wells of 24-well plates at 5 μL per well. Three wells on each individual plate received 5 μL of DMSO without compound as controls. The final concentration of DMSO per well was 0.5%. The plates were incubated for 6 days at 37° C. in a humidified 5% CO2-in-air atmosphere. Cell viability was determined by the MTT assay and IC50 was generated using a sigmoidal dose-response nonlinear regression curve fit (GraphPad Software Inc.).

NCI-N87 [2] = test: as above; type: cell-based; conditions: Homo sapiens, NCI-N87, 144 h; MTT assay, 6 days incubation
Protocol: as §1

NCI-N87 cells = test: In vivo efficacy, tumor xenograft studies in mice; conditions: Male BALB/c nu/nu mice, tumors approximately 95 mm^3 at start, single i.v. injection day 0 (T-2-AB 0.5 or 2 mg/kg, T-DM1 2 mg/kg), 80 days observation
Protocol: In vivo efficacy of antibody-drug conjugates of the invention was measured by tumor xenograft studies in mice. Male BALB/c nu/nu were injected subcutaneously in the right flank with suspensions of 5×10^6 of NCI-N87 cells respectively in PBS. Mice were randomized into study groups when tumors reached approximately 95 mm^3. T-DM1 (2 mg/kg) and T-2-AB conjugates (0.5 mg/kg or 2 mg/kg) were given i.v. (single injection on treatment day 0). All treatment groups consisted of 6 to 10 animals per group, and tumor size was monitored twice weekly using caliper measurement. The tumor mass was calculated as volume=(width×width×length)/2.
T-7-AB was progressed in the same method except initial tumor size was 150 mm^3.

JIMT-1 [3] = test: Cell cytotoxicity of antibody-drug conjugate; type: cell-based; conditions: living cells quantified 96 hours later
Protocol: (§2) NCI-N87, JNMT-2, SK-BR3, and SK-V3 cancer cells were seeded in 96-well plates at a density of 2,000 to 8,000 cells per well in 100 μL of medium, and cultured for 24 hours. The four compounds obtained in Example 46 were treated by serial dilutions of 1:4 from 600 nM to 0.009 nM, and the antibody drug conjugate T-DM1 was treated by serial dilutions of 1:4 from 200 nM to 0.003 nM. Experiments were performed in a similar manner to Test Example 1 to quantify living cells 96 hours later, and results are shown in Table 2 below. Further, results of in vitro analysis of compound T-2-AB, T-3-AB, T-7-AB T-8-AB, T-9-AB, T-11-AB, T-12-AB, T-13-AB, T-14-AB, T-15-AB, T-16-AB, T-17-AB, T-Int-1-AB, T-Int-2-AB, T-Int-14-AB and mT-Int-8-AB were shown in FIG. 10, FIG. 11, FIG. 12, and Table 3.

NCI-N87 [4] = test: Cell cytotoxicity of antibody-drug conjugate; type: cell-based; conditions: living cells quantified 96 hours later
Protocol: as §2

SK-OV3 [5] = test: Cell cytotoxicity of antibody-drug conjugate; type: cell-based; conditions: living cells quantified 96 hours later
Protocol: as §2

SK-BR3 = test: Cell cytotoxicity of antibody-drug conjugate; type: cell-based; conditions: living cells quantified 96 hours later
Protocol: as §2

A-498 = test: In vitro analysis of benzodiazepine dimer derivatives, MTT cell viability; type: cell-based; conditions: MTT assay, 6 days incubation
Protocol: as §1

Calu-6 = test: as above; type: cell-based; conditions: MTT assay, 6 days incubation
Protocol: as §1

HEK-293E = test: as above; type: cell-based; conditions: MTT assay, 6 days incubation
Protocol: as §1

HCT-116 = test: as above; type: cell-based; conditions: MTT assay, 6 days incubation
Protocol: as §1

SK-OV3 [6] = test: as above; type: cell-based; conditions: MTT assay, 6 days incubation
Protocol: as §1

MIA-PaCa2 = test: as above; type: cell-based; conditions: MTT assay, 6 days incubation
Protocol: as §1

PC-3 = test: as above; type: cell-based; conditions: MTT assay, 6 days incubation
Protocol: as §1

[7] = Homo sapiens, MIA PaCa-2, 144 h

Compound: COc1cc2c(cc1OCCN(CCOc1cc3c(cc1OC)C(=O)N1Cc4ccccc4C[C@H]1C=N3)c1ccncc1)N=C[C@@H]1Cc3ccccc3CN1C2=O [Compound D-6, (N-Pyridine)-TBD-Dimer]
- IC50 (JIMT-1 [1]; Homo sapiens, JIMT-1, 144 h): 2980 pM
- IC50 (NCI-N87 [2]): 4110 pM

Compound: T-DM1
- Tumor size in NCI-N87 xenograft (NCI-N87 cells): less active than the conjugates of the invention
- IC50 (JIMT-1 [3]): 3.15 ± 1.76 nM
- IC50 (NCI-N87 [4]): 0.234 ± 0.096 nM
- IC50 (SK-OV3 [5]): 0.109 ± 0.004 nM
- IC50 (SK-BR3): 0.037 ± 0.012 nM

Compound: COc1cc2c(cc1OCc1cncc(COc3cc4c(cc3OC)C(=O)N3Cc5ccccc5C[C@H]3C=N4)c1)N=C[C@@H]1Cc3ccccc3CN1C2=O [Compound D-4, (Pyridine)-TBD-Dimer]
- IC50 (JIMT-1 [1]; Homo sapiens, JIMT-1, 144 h): 1.7 ± 0.6 pM
- IC50 (NCI-N87 [2]): 3.8 ± 2.4 pM

Compound: COc1cc2c(cc1OCc1cc(O)cc(COc3cc4c(cc3OC)C(=O)N3c5ccccc5C[C@H]3C=N4)c1)N=C[C@@H]1Cc3ccccc3N1C2=O [Compound D-7, (Phenol)-IBD-Dimer]
- IC50 (NCI-N87 [2]): 118 ± 9 pM

Compound: CC[C@H](C)[C@@H]([C@@H](CC(=O)N1CCC[C@H]1[C@H](OC)[C@@H](C)C(=O)N[C@@H](Cc1ccccc1)C(=O)OC)OC)N(C)C(=O)[C@@H](NC(=O)[C@@H](NC)C(C)C)C(C)C [MMAF-OMe, reference compound] (H-[NMeV]V[Dil][Dolaproine]F-OMe)
- IC50 (JIMT-1 [1]): 161 pM
- IC50 (A-498): 233 pM
- IC50 (Calu-6): 162 pM
- IC50 (HEK-293E): 0.97 nM
- IC50 (HCT-116): 0.392 nM
- IC50 (SK-OV3 [6]): 0.244 nM
- IC50 (MIA-PaCa2): 0.852 nM
- IC50 (PC-3): 0.212 nM

Compound: COc1cc2c(cc1OCc1cc(COc3cc4c(cc3OC)C(=O)N3c5ccccc5C[C@H]3C=N4)cc(CN(C)C)c1)N=C[C@@H]1Cc3ccccc3N1C2=O [Compound D-8, (N,N-dimethylbenzyl)-IBD-Dimer]
- IC50 (NCI-N87 [2]): 62 ± 2 pM

Compound: COc1cc2c(cc1OCc1cccc(COc3cc4c(cc3OC)C(=O)N3Cc5ccccc5C[C@H]3C=N4)c1)N=C[C@@H]1Cc3ccccc3CN1C2=O [Ref-1, reference compound]
- IC50 (JIMT-1 [1]; Homo sapiens, JIMT-1, 144 h): 5.4 ± 1.6 pM
- IC50 (NCI-N87 [2]): 3.5 ± 2.8 pM

Compound: C=C1C[C@H]2C=Nc3cc(OCc4cncc(COc5cc6c(cc5OC)C(=O)N5CC(=C)C[C@H]5C=N6)c4)c(OC)cc3C(=O)N2C1 [Compound D-2, (Pyridine)-PBD-Dimer]
- IC50 (JIMT-1 [1]; Homo sapiens, JIMT-1, 144 h): 34 pM
- IC50 (NCI-N87 [2]): 104 pM
- IC50 (A-498; Homo sapiens, A498, 144 h): 64 pM
- IC50 (Calu-6; Homo sapiens, Calu-6, 144 h): 29 pM
- IC50 (HEK-293E; HEK293E, 144 h): 0.079 nM
- IC50 (HCT-116; Homo sapiens, HCT-116, 144 h): 0.036 nM
- IC50 (SK-OV3 [6]; Homo sapiens, SK-OV-3, 144 h): 0.074 nM
- IC50 (MIA-PaCa2; [7]): 0.044 nM
- IC50 (PC-3; Homo sapiens, PC-3, 144 h): 0.049 nM

Compound: COc1cc2c(cc1OCc1cc(O)cc(COc3cc4c(cc3OC)C(=O)N3Cc5ccccc5C[C@H]3C=N4)c1)N=C[C@@H]1Cc3ccccc3CN1C2=O [Compound D-3, (Phenol)-TBD-Dimer]
- IC50 (JIMT-1 [1]; Homo sapiens, JIMT-1, 144 h): 31 ± 15 pM
- IC50 (NCI-N87 [2]): 32.2 ± 21.3 pM
- IC50 (A-498; Homo sapiens, A498, 144 h): 139 pM
- IC50 (Calu-6; Homo sapiens, Calu-6, 144 h): 6.2 pM
- IC50 (HEK-293E; HEK293E, 144 h): 0.0114 ± 0.0026 nM
- IC50 (HCT-116; Homo sapiens, HCT-116, 144 h): 0.0137 ± 0.0086 nM
- IC50 (SK-OV3 [6]; Homo sapiens, SK-OV-3, 144 h): 0.0596 ± 0.0182 nM
- IC50 (MIA-PaCa2; [7]): 0.0106 ± 0.0046 nM
- IC50 (PC-3; Homo sapiens, PC-3, 144 h): 0.0326 ± 0.0103 nM

Compound: COc1cc2c(cc1OCc1cc(COc3cc4c(cc3OC)C(=O)N3Cc5ccccc5C[C@H]3C=N4)cc(CN(C)C)c1)N=C[C@@H]1Cc3ccccc3CN1C2=O [Compound D-5, (N,N-dimethylbenzyl)-TBD-Dimer]
- IC50 (JIMT-1 [1]; Homo sapiens, JIMT-1, 144 h): 1.7 ± 0.5 pM
- IC50 (A-498; Homo sapiens, A498, 144 h): 2.9 pM
- IC50 (Calu-6; Homo sapiens, Calu-6, 144 h): 1.4 pM
- IC50 (HEK-293E; HEK293E, 144 h): 0.0022 ± 0.0011 nM
- IC50 (HCT-116; Homo sapiens, HCT-116, 144 h): 0.0014 ± 0.0006 nM
- IC50 (SK-OV3 [6]; Homo sapiens, SK-OV-3, 144 h): 0.0109 ± 0.0027 nM
- IC50 (MIA-PaCa2; [7]): 0.0019 ± 0.0016 nM
- IC50 (PC-3; Homo sapiens, PC-3, 144 h): 0.0044 ± 0.0021 nM

Compound: COc1cc2c(cc1OCCCCCOc1cc3c(cc1OC)C(=O)N1Cc4cc(O)ccc4C[C@H]1C=N3)C=N[C@@H]1Cc3ccccc3CN1C2=O [Compound D-13]
- IC50 (NCI-N87 [2]): 2030 ± 1220 pM

Compound: COc1cc2c(cc1OCCN(C)CCOc1cc3c(cc1OC)C(=O)N1Cc4ccccc4C[C@H]1C=N3)N=C[C@@H]1Cc3ccccc3CN1C2=O [Compound D-9]
- IC50 (NCI-N87 [2]): 184 ± 36 pM

Compound: COc1cc2c(cc1OCc1cc(O)cc(COc3cc4c(cc3OC)C(=O)N3C=C(c5ccccc5)C[C@H]3C=N4)c1)N=C[C@@H]1CC(c3ccccc3)=CN1C2=O [Compound D-11]
- IC50 (NCI-N87 [2]): 173 ± 34 pM

Compound: C=C1C[C@H]2C=Nc3cc(OCc4cc(O)cc(COc5cc6c(cc5OC)C(=O)N5CC(=C)C[C@H]5C=N6)c4)c(OC)cc3C(=O)N2C1 [Compound D-1, (Phenol)-PBD-Dimer]
- IC50 (JIMT-1 [1]; Homo sapiens, JIMT-1, 144 h): 102 pM
- IC50 (NCI-N87 [2]): 191 pM
- IC50 (A-498; Homo sapiens, A498, 144 h): 414 pM
- IC50 (Calu-6; Homo sapiens, Calu-6, 144 h): 89 pM
- IC50 (HEK-293E; HEK293E, 144 h): 0.216 nM
- IC50 (HCT-116; Homo sapiens, HCT-116, 144 h): 0.109 nM
- IC50 (SK-OV3 [6]; Homo sapiens, SK-OV-3, 144 h): 0.175 nM
- IC50 (MIA-PaCa2; [7]): 0.105 nM
- IC50 (PC-3; Homo sapiens, PC-3, 144 h): 0.126 nM

Compound: COc1cc2c(cc1OCc1cc(COc3cc4c(cc3OC)C(=O)N3Cc5cc(O)ccc5C[C@H]3C=N4)cc(CN(C)C)c1)N=C[C@@H]1Cc3ccccc3CN1C2=O [Compound D-12]
- IC50 (NCI-N87 [2]): 2030 pM

Compound: C=C1C[C@H]2C=Nc3cc(OCc4cc(COc5cc6c(cc5OC)C(=O)N5CC(=C)C[C@H]5C=N6)cc(CN(C)C)c4)c(OC)cc3C(=O)N2C1 [Compound D-10]
- IC50 (NCI-N87 [2]): 663 ± 116 pM
